Values joined by “and” are separate entries in the source; they are usually repeats but may differ in a detail not shown here. Equal values may be shown once.
How the values were obtained:
endothelial cells = assay: Inhibition of Endothelial Cell Tube Formation (Matrigel, FGF2-stimulated); assay type: cell-based, Human; conditions: for inhibition at 3 µM: Homo sapiens, Endothelial cell, read-out: Man % Inhibition +/− SD
Method: Differentiation by endothelial cells was examined using a method developed by Grant et al. (Grant et al., In Vitro Cell Dev. Biol., 27A:327-336 (1991), which is hereby incorporated by reference in its entirety). Matrigel® matrix, phenol-red free (commercially available from Becton Dickinson, Bedford, Mass.) was thawed overnight at 4° C. Using cold pipette tips, 3.0 mg/well of Matrigel® matrix was placed M a cold twenty-four-multi-well plate (Falcon). Matrigel® matrix was allowed to polymerize during incubation at 37° C. for 30 minutes.

[1] = system: FGF2-induced angiogenesis in chick chorioalloantoic membranes; assay: Neovascularization in the Chick Chorioalloantoic Membrane (CAM), FGF2-stimulated CAM Model; assay type: in vivo; conditions: for Branch Points ± SEM: CAM; for inhibition at 10 µM: Gallus gallus, FGF2 + analog, 10 uM (Table 4), read-out: % inhibition ± SEM Branch point in CAM; for % inhibition ± SEM: CAM branch points (Table 3)
Method: In vivo neovascularization was examined by the method previously described by Auerbach et al. (Auerbach et al., J. Dev. Biol., 41:391-394 (1974), which is hereby incorporated by reference in its entirety). Ten-day old embryos were purchased from Spafas, Inc. (Preston, Conn.) and were incubated at 37° C. with 55% relative humidity. In the dark with the help of a candling lamp, a small hole was punctured in the shell concealing the air sac with a hypodermic needle. A second hole was punctured, in the shell on the broadside of the egg directly over an avascular portion of the embryonic membrane, as observed during candling. A false air sac was created beneath the second hole by the application of negative pressure to the first hole, which caused the chorioallantoic membrane (CAM) to separate from the shell. A window, approximately 1.0 cm^2, was cut in the shell over the dropped CAM with the use of a small crafts grinding wheel (Dremel, Division of Emerson Electric Company Racine, Wis.), which allowed direct, access to the underlying CAM. Filter disks of #1 filter paper (Whatman International, United Kingdom) were soaked in 3 mg/mL cortisone acetate (Sigma, St. Louis, Mo.) in a solution of 95% ethanol and water and subsequently air dried under sterile conditions. FGF2 (Life Technologies, Gaithersburg, Md.) was used to grow vessels on the CAMs of 10 day old chick embryos. Sterile filter disks adsorbed with FGF2 dissolved in PBS at 1 μg/mL were placed on growing CAMs. Sterile filter disks adsorbed with FGF2 or sulfur- or selenium-containing compounds, and polymeric forms were dissolved in PBS at 1 μg/mL were placed on growing CAM. At 24 h, test compounds or control vehicle was added directly to CAM topically.
CAM tissue directly beneath FGF2-saturated filter disk was resected from embryos treated 48 hours prior with test compound or control. Tissues were washed three times with PBS. Sections were placed in a 35-mm petri dish (Nalge Nunc, Rochester, N.Y.) and examined under a SV6 stereomicroscope (Karl Zeiss, Thornwood, N.Y.) at 50× magnification. Digital images of CAM sections adjacent to filters were collected using a 3-CCD color video camera system (Toshiba America, New York, N.Y.) and analyzed using Image-Pro Plus software (Media Cybernetics, Silver Spring, Md.).
Statistical Analysis: Statistical analysis was performed by 1-way ANOVA comparing experimental with control samples.

[2] = FGF2 + analog, all compounds tested at 3 μM, n = 3

| Compound | Length(mm) ± SEM (endothelial cells; [2]) [mm] | inhibition at 3 µM (endothelial cells; [2]) [%] | Branch Points ± SEM ([1]; FGF2 (1.0 ug/ml) + analog) | inhibition at 10 µM [1] [%] | % inhibition ± SEM ([1]; FGF2 (1.0 ug/ml) + analog) [%] | Length(mm) ± SEM (endothelial cells; FGF2 alone (stimulated control)) [mm] | Branch Points ± SEM ([1]; FGF2 alone, 1.0 ug/ml) |
| --- | --- | --- | --- | --- | --- | --- | --- |
| O=S1(=O)C=CC1 [Example 1] | 20.64 ± 0.68 | 77.9 ± 2.28 | 149 ± 8.9 | 48.9 ± 7 | – | – | – |
| O=S1(=O)CCCC1 [Example 2] | 24.03 ± 0.85 | 66.5 ± 2.87 | 141.0 ± 10.69 | 55 ± 8.53 | – | – | – |
| CCCCS(=O)(=O)CCCC [Example 3] | 25.41 ± 1.1 | 61.9 ± 3.57 | 150.88 ± 14.31 | 47.2 ± 11.4 | – | – | – |
| O=S1(=O)CC=CC1 [Example 4] | 25.25 ± 0.66 | 62.5 ± 2.24 | 131.57 ± 11.55 | 62.6 ± 9.21 | – | – | – |
| CS(=O)(=O)c1ccccc1 [Example 5] | 28.81 ± 1.0 | 50.5 ± 3.48 | 140 ± 5.2 | 37 | 37 ± 5.9 | – | – |
| CSCS(C)(=O)=O [Example 6] | 22.91 ± 1.70 | 70.3 ± 5.71 | 158.0 ± 7.08 | 25.6 ± 8.1 | – | – | – |
| CS(=O)(=O)C(Cl)(Cl)Cl [Example 9] | 21.95 ± 3.1 | 73.5 ± 10.5 | 135.83 ± 8.17 | 51 ± 9.36 | – | – | – |
| CS(=O)(=O)CS(C)(=O)=O [Example 12] | 31.47 ± 1.5 | 41.5 ± 4.93 | 144.83 ± 9.19 | 40.6 ± 10.5 | – | – | – |
| O=S1(=O)CC2(C1)CS(=O)(=O)C2 [Example 13] | 34.61 ± 0.24 | 31 ± 0.8 | 164 ± 5 | 24.7 ± 4.3 | 24 ± 4.3 | – | – |
| O=[Se](=O)(c1ccccc1)c1ccccc1 [Example 14] | 31.91 ± 1.8 | 40.1 ± 6.12 | 143.5 ± 4.7 | 41.4 ± 4.5 | – | – | – |
| O=S(=O)(c1ccccc1)c1ccccc1 [Example 15] | 23.43 ± 2.5 | 65.6 ± 8.9 | 163 ± 15 | 25 ± 13 | – | – | – |
| C[Se](=O)(=O)c1ccccc1 [Example 16] | 28.78 ± 0.88 | 46.5 ± 3.2 | – | 23.8 ± 4.9 | – | – | – |
| CC[Se](=O)(=O)CC [Example 17] | 30.98 ± 2.43 | 38.6 ± 8.7 | 146 ± 8.5 | 39.9 ± 7.3 | 40 ± 7 | – | – |
| C[Se](=O)c1ccccc1 (stereo not drawn) [Example 18] | 28.22 ± 0.92 | 48.5 ± 3.3 | 165 ± 5.7 | 39 | 23.8 ± 4.9 | – | – |
| CCS(=O)(=O)CC [Example 19] | 28.46 ± 25.7 | 47.6 ± 9.2 | 131 ± 17 | 53 ± 15 | – | – | – |
| O=C(O)C[Se](=O)(=O)CC(=O)O [Example 20] | 25.11 ± 3.1 | 62.9 ± 10.5 | 148.67 ± 11.02 | 36.3 ± 12.6 | – | – | – |
| FGF2: growth factor used to grow vessels on the CAMs; pro-angiogenic stimulus [reference compound] | – | – | – | – | – | 43.82 ± 3.2 | 180.33 ± 8.58 and 193 ± 11 and 173 ± 7.5 |
